PMC8213057, “Targeting ALK2: An Open Science Approach to Developing Therapeutics for the Treatment of Diffuse Intrinsic Pontine Glioma” (Journal of Medicinal Chemistry, 2020)

Experiments:
TYRO3/SKY = biological target: T1, TYRO3/SKY (Homo sapiens, UniProt Q06418); settings: 1 μM; Run 1, Run 2
T1 sequence (Q06418 41-890): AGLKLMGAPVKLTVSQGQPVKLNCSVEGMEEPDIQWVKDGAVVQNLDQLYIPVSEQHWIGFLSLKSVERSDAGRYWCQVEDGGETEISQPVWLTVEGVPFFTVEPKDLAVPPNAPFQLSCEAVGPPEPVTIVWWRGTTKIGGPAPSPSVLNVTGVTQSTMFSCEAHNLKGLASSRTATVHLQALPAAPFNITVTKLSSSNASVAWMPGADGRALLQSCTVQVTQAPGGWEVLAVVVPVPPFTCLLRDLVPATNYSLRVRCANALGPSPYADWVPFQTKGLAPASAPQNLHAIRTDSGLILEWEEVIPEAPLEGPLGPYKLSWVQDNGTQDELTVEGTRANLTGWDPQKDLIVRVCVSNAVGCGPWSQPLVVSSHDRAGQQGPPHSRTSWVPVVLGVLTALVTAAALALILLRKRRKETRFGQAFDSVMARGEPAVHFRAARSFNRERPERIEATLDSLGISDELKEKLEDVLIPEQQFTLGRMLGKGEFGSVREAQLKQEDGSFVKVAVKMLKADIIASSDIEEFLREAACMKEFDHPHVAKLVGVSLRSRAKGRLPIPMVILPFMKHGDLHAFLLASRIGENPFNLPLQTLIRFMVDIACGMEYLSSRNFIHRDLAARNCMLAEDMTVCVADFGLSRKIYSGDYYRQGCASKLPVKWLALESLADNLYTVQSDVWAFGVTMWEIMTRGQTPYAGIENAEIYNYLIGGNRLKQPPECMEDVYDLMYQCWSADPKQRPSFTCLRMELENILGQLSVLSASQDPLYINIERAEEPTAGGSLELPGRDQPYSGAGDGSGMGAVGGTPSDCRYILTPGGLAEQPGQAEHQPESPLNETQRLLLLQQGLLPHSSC

BMX/ETK = biological target: T2, BMX/ETK (Homo sapiens, UniProt P51813); settings: 1 μM; Run 1, Run 2
T2 sequence (P51813 1-675): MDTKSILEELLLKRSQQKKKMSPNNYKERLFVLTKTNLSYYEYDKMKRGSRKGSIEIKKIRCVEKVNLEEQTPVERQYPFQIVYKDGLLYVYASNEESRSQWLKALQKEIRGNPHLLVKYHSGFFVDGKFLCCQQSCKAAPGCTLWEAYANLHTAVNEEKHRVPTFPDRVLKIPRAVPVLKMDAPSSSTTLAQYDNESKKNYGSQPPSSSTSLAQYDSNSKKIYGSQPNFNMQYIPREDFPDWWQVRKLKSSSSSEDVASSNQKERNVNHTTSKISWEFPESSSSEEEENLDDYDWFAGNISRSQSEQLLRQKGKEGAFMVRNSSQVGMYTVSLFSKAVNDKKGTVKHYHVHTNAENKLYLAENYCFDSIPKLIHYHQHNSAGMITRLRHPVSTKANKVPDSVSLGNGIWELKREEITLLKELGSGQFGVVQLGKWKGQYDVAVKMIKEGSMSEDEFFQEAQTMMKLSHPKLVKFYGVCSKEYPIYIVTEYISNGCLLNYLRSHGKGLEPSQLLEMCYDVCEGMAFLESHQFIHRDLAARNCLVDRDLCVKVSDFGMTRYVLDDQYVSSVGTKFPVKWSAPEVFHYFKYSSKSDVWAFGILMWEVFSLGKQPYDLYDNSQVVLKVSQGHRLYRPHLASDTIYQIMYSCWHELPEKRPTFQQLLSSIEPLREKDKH

WNK2 = WNK2 (Homo sapiens, UniProt Q9Y3S1); settings: 1 μM; Run 1, Run 2
HIPK3 = HIPK3 (Homo sapiens, UniProt Q9H422); experiment: biochemical; settings: read-out: % enzyme activity, 1 μM; Run 1, Run 2
DMPK2 = DMPK2 (Homo sapiens, UniProt Q6DT37); settings: 1 μM; Run 1, Run 2
LIMK1 = LIMK1 (Homo sapiens, UniProt P53667); settings: 1 μM; Run 1, Run 2
PKCd = PKCd (Homo sapiens, UniProt Q05655); experiment: biochemical; settings: read-out: % enzyme activity, 1 μM; Run 1, Run 2
GSK3b = GSK3b (Homo sapiens, UniProt P49841); experiment: biochemical; settings: read-out: % enzyme activity, 1 μM; Run 1, Run 2
PKN1/PRK1 = PKN1/PRK1 (Homo sapiens, UniProt Q16512); settings: 1 μM; Run 1, Run 2
LOK/STK10 = LOK/STK10 (Homo sapiens, UniProt O94804); settings: 1 μM; Run 1, Run 2
ALK2/ACVR1 = biological target: T3, ALK2/ACVR1 (Homo sapiens, UniProt Q04771); experiment: biochemical; settings: Run 1, Run 2; for % enzyme activity: 1 μM; for remaining activity at 1 µM: read-out: % enzyme activity, 1 μM
T3 construct: purchased Reaction Biology Corporation
T3 sequence (Q04771 21-509): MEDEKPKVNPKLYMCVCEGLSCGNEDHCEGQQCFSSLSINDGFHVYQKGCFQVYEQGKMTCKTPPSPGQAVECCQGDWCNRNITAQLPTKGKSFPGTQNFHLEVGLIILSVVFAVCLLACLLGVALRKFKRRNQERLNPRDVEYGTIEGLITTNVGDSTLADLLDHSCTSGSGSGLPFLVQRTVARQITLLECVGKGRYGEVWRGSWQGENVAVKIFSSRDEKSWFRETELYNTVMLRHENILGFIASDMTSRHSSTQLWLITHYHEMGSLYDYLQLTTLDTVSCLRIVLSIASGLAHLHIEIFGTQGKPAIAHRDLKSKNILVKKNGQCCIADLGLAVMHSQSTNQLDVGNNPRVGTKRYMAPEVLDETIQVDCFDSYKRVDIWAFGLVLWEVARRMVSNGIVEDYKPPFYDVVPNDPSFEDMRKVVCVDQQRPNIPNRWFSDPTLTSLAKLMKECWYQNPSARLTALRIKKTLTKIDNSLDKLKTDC

Sequence of PKCd (Q05655 whole entry): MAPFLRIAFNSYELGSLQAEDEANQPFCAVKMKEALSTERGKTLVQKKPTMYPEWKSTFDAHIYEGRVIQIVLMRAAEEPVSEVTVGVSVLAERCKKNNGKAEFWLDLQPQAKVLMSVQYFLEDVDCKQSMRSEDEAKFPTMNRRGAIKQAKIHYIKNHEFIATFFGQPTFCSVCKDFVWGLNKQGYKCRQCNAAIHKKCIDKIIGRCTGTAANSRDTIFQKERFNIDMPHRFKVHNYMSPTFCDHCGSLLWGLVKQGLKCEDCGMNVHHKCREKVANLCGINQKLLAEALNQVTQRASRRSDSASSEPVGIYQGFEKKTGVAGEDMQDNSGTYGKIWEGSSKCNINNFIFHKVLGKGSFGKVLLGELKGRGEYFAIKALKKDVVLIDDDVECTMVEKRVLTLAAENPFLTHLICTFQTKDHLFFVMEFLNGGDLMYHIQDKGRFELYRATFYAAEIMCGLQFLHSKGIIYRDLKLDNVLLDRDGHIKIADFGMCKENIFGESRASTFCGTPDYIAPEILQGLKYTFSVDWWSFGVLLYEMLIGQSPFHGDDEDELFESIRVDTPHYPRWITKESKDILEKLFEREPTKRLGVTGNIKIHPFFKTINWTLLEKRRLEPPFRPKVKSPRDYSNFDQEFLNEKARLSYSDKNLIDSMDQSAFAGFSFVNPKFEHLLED
Sequence of DMPK2 (Q6DT37 whole entry): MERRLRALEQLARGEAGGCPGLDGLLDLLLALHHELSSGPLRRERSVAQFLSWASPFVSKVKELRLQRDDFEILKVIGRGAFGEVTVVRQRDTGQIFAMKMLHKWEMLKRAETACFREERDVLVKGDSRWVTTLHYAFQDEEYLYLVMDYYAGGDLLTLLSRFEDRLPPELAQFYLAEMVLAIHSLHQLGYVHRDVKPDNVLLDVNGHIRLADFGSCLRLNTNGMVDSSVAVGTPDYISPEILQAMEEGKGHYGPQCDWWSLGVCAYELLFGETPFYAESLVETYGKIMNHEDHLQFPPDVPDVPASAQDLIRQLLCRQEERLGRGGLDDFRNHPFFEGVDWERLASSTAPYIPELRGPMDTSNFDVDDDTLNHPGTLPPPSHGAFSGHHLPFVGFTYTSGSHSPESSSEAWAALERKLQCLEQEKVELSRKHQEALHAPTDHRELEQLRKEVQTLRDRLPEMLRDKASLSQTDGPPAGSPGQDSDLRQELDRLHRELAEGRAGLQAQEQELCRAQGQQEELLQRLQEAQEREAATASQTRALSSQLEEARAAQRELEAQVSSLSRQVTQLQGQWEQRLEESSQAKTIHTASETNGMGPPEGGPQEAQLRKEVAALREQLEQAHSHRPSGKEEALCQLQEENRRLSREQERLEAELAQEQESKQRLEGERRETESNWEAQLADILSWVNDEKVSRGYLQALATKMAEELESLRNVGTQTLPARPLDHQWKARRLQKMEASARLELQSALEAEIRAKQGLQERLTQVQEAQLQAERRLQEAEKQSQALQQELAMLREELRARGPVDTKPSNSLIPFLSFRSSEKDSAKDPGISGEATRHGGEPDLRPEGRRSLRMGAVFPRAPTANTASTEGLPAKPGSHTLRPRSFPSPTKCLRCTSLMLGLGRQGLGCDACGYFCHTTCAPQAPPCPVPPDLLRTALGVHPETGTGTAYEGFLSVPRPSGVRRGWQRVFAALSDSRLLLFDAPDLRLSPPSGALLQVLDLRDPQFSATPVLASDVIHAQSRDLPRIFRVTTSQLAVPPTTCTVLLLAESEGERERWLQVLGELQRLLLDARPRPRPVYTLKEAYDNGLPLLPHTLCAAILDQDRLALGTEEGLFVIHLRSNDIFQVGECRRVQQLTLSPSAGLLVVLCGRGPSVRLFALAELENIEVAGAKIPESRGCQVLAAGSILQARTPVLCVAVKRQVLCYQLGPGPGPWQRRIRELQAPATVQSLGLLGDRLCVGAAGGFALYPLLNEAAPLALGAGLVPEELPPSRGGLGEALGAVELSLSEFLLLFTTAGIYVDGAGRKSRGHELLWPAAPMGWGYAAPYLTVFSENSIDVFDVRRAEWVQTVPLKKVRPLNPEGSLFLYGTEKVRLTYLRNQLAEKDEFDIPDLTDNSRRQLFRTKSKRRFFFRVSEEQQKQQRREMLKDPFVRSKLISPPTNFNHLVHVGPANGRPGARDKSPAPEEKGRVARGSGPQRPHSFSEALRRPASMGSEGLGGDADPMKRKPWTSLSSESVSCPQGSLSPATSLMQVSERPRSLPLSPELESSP
Sequence of WNK2 (Q9Y3S1 whole entry, species assumed): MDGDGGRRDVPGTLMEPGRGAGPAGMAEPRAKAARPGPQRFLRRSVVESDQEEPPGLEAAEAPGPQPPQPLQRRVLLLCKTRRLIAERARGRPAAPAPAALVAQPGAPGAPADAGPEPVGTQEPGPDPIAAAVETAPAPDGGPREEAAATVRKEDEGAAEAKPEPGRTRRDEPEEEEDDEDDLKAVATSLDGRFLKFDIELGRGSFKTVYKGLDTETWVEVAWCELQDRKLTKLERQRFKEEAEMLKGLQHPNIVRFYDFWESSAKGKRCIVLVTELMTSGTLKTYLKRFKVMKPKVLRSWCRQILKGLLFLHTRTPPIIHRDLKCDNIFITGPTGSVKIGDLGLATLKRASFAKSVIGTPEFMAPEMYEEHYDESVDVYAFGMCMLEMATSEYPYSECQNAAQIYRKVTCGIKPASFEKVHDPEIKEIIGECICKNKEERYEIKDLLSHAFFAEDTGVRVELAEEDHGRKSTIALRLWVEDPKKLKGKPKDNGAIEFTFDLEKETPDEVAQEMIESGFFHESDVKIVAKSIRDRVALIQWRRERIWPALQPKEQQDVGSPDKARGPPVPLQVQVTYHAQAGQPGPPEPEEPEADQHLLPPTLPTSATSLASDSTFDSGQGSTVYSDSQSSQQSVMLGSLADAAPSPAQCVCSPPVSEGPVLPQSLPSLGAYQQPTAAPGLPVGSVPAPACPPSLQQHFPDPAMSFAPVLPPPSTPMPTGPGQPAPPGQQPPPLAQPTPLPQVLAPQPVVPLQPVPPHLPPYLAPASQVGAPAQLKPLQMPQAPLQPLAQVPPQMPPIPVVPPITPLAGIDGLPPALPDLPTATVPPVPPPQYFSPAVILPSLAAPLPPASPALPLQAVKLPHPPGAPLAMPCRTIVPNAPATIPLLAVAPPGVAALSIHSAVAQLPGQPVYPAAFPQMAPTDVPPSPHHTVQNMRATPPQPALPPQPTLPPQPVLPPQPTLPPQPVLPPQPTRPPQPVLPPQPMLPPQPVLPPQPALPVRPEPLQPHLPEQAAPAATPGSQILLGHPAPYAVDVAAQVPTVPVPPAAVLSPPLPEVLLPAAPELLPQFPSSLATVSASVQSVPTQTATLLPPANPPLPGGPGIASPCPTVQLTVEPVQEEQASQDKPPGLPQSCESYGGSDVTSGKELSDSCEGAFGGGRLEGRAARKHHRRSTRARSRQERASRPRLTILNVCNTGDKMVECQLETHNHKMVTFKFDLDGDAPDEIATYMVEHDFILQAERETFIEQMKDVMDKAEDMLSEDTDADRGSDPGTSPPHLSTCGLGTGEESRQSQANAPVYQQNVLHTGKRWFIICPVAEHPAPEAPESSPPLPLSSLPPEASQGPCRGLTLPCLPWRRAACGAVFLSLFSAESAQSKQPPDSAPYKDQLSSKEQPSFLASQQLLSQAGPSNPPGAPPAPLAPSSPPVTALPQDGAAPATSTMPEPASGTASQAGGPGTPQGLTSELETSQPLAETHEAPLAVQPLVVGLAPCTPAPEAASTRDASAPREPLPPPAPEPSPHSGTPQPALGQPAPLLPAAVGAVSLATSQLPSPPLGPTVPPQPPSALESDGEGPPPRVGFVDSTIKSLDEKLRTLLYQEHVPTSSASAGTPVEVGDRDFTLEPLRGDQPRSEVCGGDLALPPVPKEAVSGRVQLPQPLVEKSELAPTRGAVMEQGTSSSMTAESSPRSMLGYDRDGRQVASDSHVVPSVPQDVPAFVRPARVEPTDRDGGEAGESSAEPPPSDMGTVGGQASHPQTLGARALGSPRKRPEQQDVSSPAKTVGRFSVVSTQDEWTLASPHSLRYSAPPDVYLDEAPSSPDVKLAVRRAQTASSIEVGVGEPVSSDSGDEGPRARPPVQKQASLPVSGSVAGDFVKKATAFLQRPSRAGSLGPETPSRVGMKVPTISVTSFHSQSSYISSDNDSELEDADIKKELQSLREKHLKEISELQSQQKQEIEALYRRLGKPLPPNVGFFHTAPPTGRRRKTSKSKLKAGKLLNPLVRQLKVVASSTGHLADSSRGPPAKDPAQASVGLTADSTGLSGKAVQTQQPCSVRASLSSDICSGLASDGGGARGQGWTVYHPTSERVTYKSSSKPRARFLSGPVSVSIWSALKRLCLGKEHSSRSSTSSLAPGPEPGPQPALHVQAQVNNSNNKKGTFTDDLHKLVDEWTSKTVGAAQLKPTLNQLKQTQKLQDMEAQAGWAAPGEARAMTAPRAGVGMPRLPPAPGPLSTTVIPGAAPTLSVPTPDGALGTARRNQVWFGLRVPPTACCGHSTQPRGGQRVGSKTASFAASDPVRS
Sequence of GSK3b (P49841 whole entry): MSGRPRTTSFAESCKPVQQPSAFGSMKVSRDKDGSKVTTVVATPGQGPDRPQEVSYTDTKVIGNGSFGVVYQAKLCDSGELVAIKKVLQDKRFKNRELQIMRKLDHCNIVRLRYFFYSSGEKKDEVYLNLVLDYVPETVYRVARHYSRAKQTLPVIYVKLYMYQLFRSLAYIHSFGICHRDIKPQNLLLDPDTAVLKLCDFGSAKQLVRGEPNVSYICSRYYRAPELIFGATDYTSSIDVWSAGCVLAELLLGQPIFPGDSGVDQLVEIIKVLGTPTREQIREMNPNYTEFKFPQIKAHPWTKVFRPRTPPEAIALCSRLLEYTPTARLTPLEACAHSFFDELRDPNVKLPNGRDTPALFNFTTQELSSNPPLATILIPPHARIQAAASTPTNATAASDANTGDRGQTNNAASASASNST

SMILES: COc1cc(-c2cncc(-c3ccc(N4CCN(C)CC4)cc3)c2C)cc(F)c1C(N)=O [Compound 26a, 2-Fluoro-6-methoxy-4-(4-methyl-5-(4-(4-methylpiperazin-1-yl)phenyl)pyridin-3-yl)benzamide]
- % enzyme activity (TYRO3/SKY): 83.48%
- % enzyme activity (BMX/ETK): 102.04%
- % enzyme activity (WNK2): 95.09%
- remaining activity at 1 µM (HIPK3): 97.8%
- % enzyme activity (DMPK2): 82.52%
- % enzyme activity (LIMK1): 64.18%
- remaining activity at 1 µM (PKCd): 99%
- remaining activity at 1 µM (GSK3b): 88.5%
- % enzyme activity (PKN1/PRK1): 96.76%
- % enzyme activity (LOK/STK10): 51.51%
- % enzyme activity (ALK2/ACVR1): 8.63%
- remaining activity at 1 µM (ALK2/ACVR1): 9.92%

SMILES: COc1cc(-c2cncc(-c3ccc(N4C[C@@H](C)N(C)[C@@H](C)C4)cc3)c2C)cc(F)c1C(N)=O [Compound 26c, 2-Fluoro-6-methoxy-4-(4-methyl-5-(4-((3R,5S)-3,4,5-trimethylpiperazin-1-yl)phenyl)pyridin-3-yl)benzamide]
- % enzyme activity (TYRO3/SKY): 93.66%
- % enzyme activity (BMX/ETK): 100.72%
- % enzyme activity (WNK2): 93.64%
- remaining activity at 1 µM (HIPK3): 90.4%
- % enzyme activity (DMPK2): 86.97%
- % enzyme activity (LIMK1): 72.63%
- remaining activity at 1 µM (PKCd): 101%
- remaining activity at 1 µM (GSK3b): 88.8%
- % enzyme activity (PKN1/PRK1): 96.39%
- % enzyme activity (LOK/STK10): 68.53%
- % enzyme activity (ALK2/ACVR1): 11.70%
- remaining activity at 1 µM (ALK2/ACVR1): 13.7%
